Like-named read-outs stand apart in the source and are kept apart here.
Key:
[1] = molecular target: T1, mouse P23H opsin (Mus musculus, UniProt P15409, P23H); assay: High-content imaging analysis of P23H opsin immunostaining in NIH3T3-(P23H opsin/GFP) cells; format: cell-based
T1 construct: expressed in transfected cells
Method: To characterize the effect of active compounds on the localization of P23H-mutant opsin in mammalian cells, an image-based assay was used with cells immunostained for WT or P23H-mutant opsin protein[18]. Briefly, NIH3T3-(P23H opsin/GFP) or NIH3T3-(WT-opsin/GFP) cells were seeded at 5000 cells per well in a 384-well cell-carrier plate (PerkinElmer) and incubated at 37 °C with 5% CO2 for 2 h. Cells were treated with compounds as described for the β-Gal fragment complementation assay and incubated in assay medium for 24 h. The assay medium then was aspirated, and cells were fixed with 4% paraformaldehyde at 20 µL per well for 20 min at RT. Cells were immunostained in one of two ways: cell membranes were either permeabilized with 0.1% Triton X-100 for 15 min or left intact and then were incubated with 10% goat serum (Life Technologies). To detect opsin on the cell plasma membrane only, intact cells were immunostained with 20 µL per well of 20 µg mL^−1 B6-30 anti-rhodopsin antibody that recognizes the N-terminal epitope on the extracellular side of rhodopsin. To detect total opsin, cells were permeabilized with Triton X-100 and immunostained with 50 µg mL^−1 1D4 anti-rhodopsin antibody specific for the C-terminal epitope on the intracellular side of rhodopsin. Opsin immunostaining was visualized by incubating cells with 5 µg mL^−1 Cy3-conjugated goat anti-mouse IgG antibody. Three washes with phosphate-buffered saline (PBS: 10 mM Na2HPO4, 1.8 mM KH2PO4, pH 7.4, 137 mM NaCl, and 2.7 mM KCl) were performed between each step of incubation with antibody. In the last wash with PBS, DAPI was added to each well at 300 nM. Fluorescence images were obtained with the Operetta High Content Imaging System (PerkinElmer) using a ×20 long objective. Five fields were taken of each well for cell images using three channels for fluorescence: GFP (100 ms), Cy3 (300 ms), and DAPI (50 ms). Images were analyzed with Acapella software from the Columbus data storage and analysis system (PerkinElmer)[18]. For cells immunostained with opsin on the non-permeabilized cell membrane only, an average of total fluorescence intensity of Cy3 per cell was used to quantify opsin in each well of the 384-well plate. For cells immunostained with opsin in permeabilized whole cells, an average ratio of Cy3 intensity on the cell plasma membrane (PM) to that of the entire cell (opsin ratio PM-to-total) was calculated for each well of a 384-well plate to quantify opsin transport to the plasma membrane. The plasma membrane was defined within ± 5% of the cell border.

[2] = molecular target: T2, bovine opsin (Bos taurus, UniProt P02699); assay: Ligand-binding assay by Trp fluorescence quenching, opsin in ROS disc membranes; settings: 20 °C, mean of three biological repeats ± s.d.; for EC50: read-out: EC50 of Trp fluorescence quenching at 330 nm (ΔF/F0)
T2 construct: ROS membranes were isolated from bovine retinas under dim red light; from tissue; host or cells: bovine retina, rod outer segment (ROS) disc membranes, bleached with hydroxylamine
Method: ROS membranes were isolated from bovine retinas under dim red light. To remove membrane associated proteins, ROS membranes were washed with a hypotonic buffer composed of 5 mM bis-tris propane (BTP) and 1 mM EDTA, pH 7.5, followed by gentle homogenization with subsequent centrifugation at 25,000×g for 30 min. This procedure was repeated four times. The final membrane pellet was suspended in 10 mM sodium phosphate buffer, pH 7.0, and 50 mM hydroxylamine to a 3 mg mL^−1 concentration of rhodopsin, placed on ice and illuminated with a 150 Watt bulb for 30 min. Membranes were pelleted by centrifugation at 16,000×g for 5 min and then washed four times with 10 mM sodium phosphate buffer, pH 7.0, and 2% bovine serum albumin followed by 4 washes with 10 mM sodium phosphate buffer, pH 7.0, and two washes with 20 mM BTP, pH 7.5, and 100 mM NaCl. The concentration of opsin was measured with a UV–visible spectrophotometer and quantified using the absorption coefficient ε280 nm = 81,200 M^−1 cm^−1[64].
Emission spectra were recorded with a PerkinElmer L55 Luminescence Spectrophotometer at 20 °C between 300 and 450 nm after excitation at 295 nm, with excitation and emission slit bands set at 5 and 10 nm, respectively. Changes in Trp fluorescence (ΔF/F0; where ΔF is the difference between the initial Trp fluorescence recorded at 330 nm (F0) and Trp fluorescence recorded at 330 nm at a specified YC-001 concentration) were plotted as a function of the ligand concentration. Binding curves were fitted by the Hill function using Origin software for each compound and the EC50 was calculated. All experimental data were corrected for background and self-absorption of excitation and emission light (inner filter effect).

[3] = molecular target: T3, P23H opsin (Mus musculus, UniProt P15409, P23H); assay: Immunoblot of P23H opsin glycosylation in NIH3T3 cell lysates; format: cell-based; parameters: key to Improved glycosylation: n = no; y = yes; settings: for Improved glycosylation: P23H opsin; for effect on glycosylation of P23H opsin (in words): immunoblot, PNGaseF, 10 µM YC-001, 5 µM 9-cis-retinal, 10 µM scriptaid
T3 construct: expressed in transfected cells
Method: NIH3T3-(P23H opsin/GFP) or NIH3T3-(WT-opsin/GFP) cells were seeded in a 48-well plate (Corning Costar) at 3.2 × 10^5 cells per well and incubated at 37 °C with 5% CO2 for 2 h. One hundred-µL of assay medium containing a compound at 5× its final concentration was added to each well. The plate was gently shaken for 5 s before further incubation at 37 °C with 5% CO2 for 24 h. The assay medium then was aspirated, and cells were lysed with 100 µL per well PBS containing 0.1% Triton X-100 and complete protease inhibitor cocktail (Roche, Basel, Switzerland) followed by sonication for 3 s. Protein concentrations were determined with the Bradford assay. For PNGaseF catalyzed deglycosylation, 3 µL of PNGaseF (1500 U, NEB) was added to the cell lysate and the mixture was incubated at room temperature for 1 h before immunoblotting. For NIH3T3-(P23H opsin/GFP) cells, 15 µg of total protein were loaded per well onto an SDS-polyacrylamide gel; whereas for NIH3T3-(WT-opsin/GFP) cells, 5 µg of total protein was loaded per well. Opsin protein was immunostained with 0.2 μg mL^−1 horseradish peroxidase-conjugated 1D4 anti-rhodopsin antibody. Band intensities were measured with ImageJ software (http://imagej.nih.gov/ij/; National the Institutes of Health, Bethesda, MD, USA) and normalized to a glyceraldehyde 3-phosphate dehydrogenase (GAPDH) loading control. Full scans of immunoblotted membranes are shown in Supplementary Fig. 8.

[4] = cell-surface immunostaining, non-permeabilized, Fig. 2j, read-out: EC50, opsin on the plasma membrane (Opsin INT)
[5] = ratio of P23H rod opsin fluorescence on plasma membrane to whole cell
[6] = ratio of P23H rod opsin fluorescence on plasma membrane to whole cell, read-out: Immunostaining HCS MEM-Total ratio EC50

T2 sequence (P02699 whole entry): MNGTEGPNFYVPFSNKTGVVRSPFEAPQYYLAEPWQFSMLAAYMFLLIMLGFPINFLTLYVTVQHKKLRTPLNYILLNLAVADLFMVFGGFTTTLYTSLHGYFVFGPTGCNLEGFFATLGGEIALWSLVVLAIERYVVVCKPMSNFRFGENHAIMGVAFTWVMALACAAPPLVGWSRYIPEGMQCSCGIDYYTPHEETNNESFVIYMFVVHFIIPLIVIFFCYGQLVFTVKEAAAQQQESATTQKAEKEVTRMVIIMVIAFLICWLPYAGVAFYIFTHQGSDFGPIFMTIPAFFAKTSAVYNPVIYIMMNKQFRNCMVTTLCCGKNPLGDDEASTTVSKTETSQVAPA

| Compound | A1 (low plateau), Opsin INT ([1]; Fig. 2j) | A2 (high plateau), Opsin INT ([1]; Fig. 2j) | A1 (low plateau), Opsin ratio PM-to-total ([1]; Fig. 2l) | A2 (high plateau), Opsin ratio PM-to-total ([1]; Fig. 2l) | A1 (low plateau), Opsin ratio ER-to-total ([1]; Fig. 2n) | A2 (high plateau), Opsin ratio ER-to-total ([1]; Fig. 2n) | EC50 [1, 4] | Immunostaining HCS MEM-Total ratio Max (fit) [1, 5] | EC50 ([1]; whole-cell immunostaining, Fig. 2l, read-out: EC50, Opsin ratio PM-to-total) | EC50 [2] | Improved glycosylation [3] | effect on glycosylation of P23H opsin (in words) [3] | EC50 [1, 6] | EC50 of Trp fluorescence quenching at 330 nm (ΔF/F0) [2] | EC50 ([1]; whole-cell immunostaining, Fig. 2n, read-out: EC50, Opsin ratio ER-to-total) |
| --- | --- | --- | --- | --- | --- | --- | --- | --- | --- | --- | --- | --- | --- | --- | --- |
| CC1=C(/C=C/C(C)=C\C=C\C(C)=C\C=O)C(C)(C)CCC1 [9-cis-retinal, reference compound] | 219 | 275 | 0.167 | 0.186 | 0.240 | 0.255 | 0.377 µM | 0.019 | 1.21 µM | 1.2 ± 0.1 µM | y | improvement of glycosylation | – | – | – |
| O=C(CCCCCN1C(=O)c2cccc3cccc(c23)C1=O)NO [Scriptaid, reference compound] | – | – | – | – | – | – | – | 0.070 | – | – | n | does not affect the glycosylation | 0.38 µM | did not affect Trp fluorescence | – |
| O=C1OCC(c2ccc(Cl)s2)=C1c1cccs1 [YC-001] | 218 | 270 | 0.172 | 0.202 | 0.236 | 0.248 | 3.22 µM | 0.030 | – | 0.98 ± 0.05 µM | y | improvement of glycosylation | 2.75 µM | – | 2.14 µM |
